The experiment deals with EBI2 (Homo sapiens, UniProt P32249). Nature of the experiment: Cell-based luminescent assay (EBI2 modulation). To be noted: cell-based luminescence; 7a,25-OHC final assay concentration 80 nM; 60 minutes incubation; read-out: IC50. The method in brief: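 Cells plated overnight at 37° C, then exposed to compound at 4-5 uM final with 80 nM 7a,25-OHC agonist for 60 min at 37° C. Luminescence read after 60 min detection at 25° C in the dark; values normalized to neutral and stimulator controls and plate-pattern corrected.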
EBI2, sequence (P32249 whole entry): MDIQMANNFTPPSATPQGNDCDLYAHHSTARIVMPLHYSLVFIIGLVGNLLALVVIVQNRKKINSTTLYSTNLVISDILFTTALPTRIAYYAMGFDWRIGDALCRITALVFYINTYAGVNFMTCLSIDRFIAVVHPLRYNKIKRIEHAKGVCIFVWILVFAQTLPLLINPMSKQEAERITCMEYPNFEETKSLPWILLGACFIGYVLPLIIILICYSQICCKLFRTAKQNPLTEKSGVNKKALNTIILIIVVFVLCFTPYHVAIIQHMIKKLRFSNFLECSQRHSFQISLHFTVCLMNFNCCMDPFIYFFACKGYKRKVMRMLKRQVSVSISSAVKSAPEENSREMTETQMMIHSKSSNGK

On to `O=C(C#Cc1ccc(Cl)cc1)N1CCN(C(=O)c2ccc(C(F)(F)F)cc2)CC1` [Compound C73, 3-(4-chlorophenyl)-1-(4-{[4-(trifluoromethyl)phenyl]carbonyl}piperazinyl)prop-2-yn-1-one], for which the IC50 was less than 100 nM.

Take `COc1ccc(C(=O)N2CCN(C(=O)C#Cc3ccc(F)cc3)CC2)cc1` [Compound C75, 3-(4-fluorophenyl)-1-{4-[(4-methoxyphenyl)carbonyl]piperazinyl}prop-2-yn-1-one]: the half-inhibitory concentration (IC50) is less than 100 nM.

As to `O=C(C#Cc1ccc(C(F)(F)F)cc1)N1CCN(C(=O)c2ccc(F)cc2)CC1` [Compound C76, 1-{4-[(4-fluorophenyl)carbonyl]piperazinyl}-3-[4-(trifluoromethyl)phenyl]prop-2-yn-1-one], the concentration for half-maximal inhibition (IC50) was less than 100 nM.

`CCC(C)C(=O)N1CCN(C(=O)/C=C/c2ccc(Br)cc2)CC1` (centres unmarked) [Compound C78, (2E)-3-(4-bromophenyl)-1-[4-(2-methylbutanoyl)piperazinyl]prop-2-en-1-one]: the IC50 is less than 100 nM.

Regarding `O=C(c1cc2cc(C(F)(F)F)ccc2[nH]1)N1CCN(C(c2ccccc2)c2ccccc2)CC1` [Compound C79, 4-(diphenylmethyl)piperazinyl 5-(trifluoromethyl)indol-2-yl ketone], the 50% inhibitory concentration (IC50) was less than 100 nM.

Turning to `COC(=O)c1ccc(C(=O)N2CCN(C(=O)c3cc4cc(Br)ccc4[nH]3)CC2)cc1` [Compound C81, methyl 4-({4-[(5-bromoindol-2-yl)carbonyl]piperazinyl}carbonyl)benzoate], the IC50 is less than 100 nM.

Turning to `O=C(/C=C/c1ccc(Br)cc1)N1CCN(C(=O)C2CCCC2)CC1` [Compound C82, (2E)-3-(4-bromophenyl)-1-[4-(cyclopentylcarbonyl)piperazinyl]prop-2-en-1-one], the 50% inhibitory concentration (IC50) is less than 100 nM.

Regarding `O=C(C#Cc1ccc(C(F)(F)F)cc1)N1CCN(C(=O)c2ccc(C(F)(F)F)cc2)CC1` [Compound C84, 3-[4-(trifluoromethyl)phenyl]-1-(4-{[4-(trifluoromethyl)phenyl]carbonyl}piperazinyl)prop-2-yn-1-one], the IC50 was less than 100 nM.

For `O=C(c1cnc2cc(F)ccc2c1)N1CCN(C(c2ccccc2)c2ccccc2)CC1` [Compound C86, 4-(diphenylmethyl)piperazinyl 7-fluoro(3-quinolyl) ketone], the IC50 is less than 100 nM.

`O=C(c1cc2ccccc2o1)N1CCN(C(c2ccccc2)c2ccccc2)CC1` [Compound C87, benzo[d]furan-2-yl 4-(diphenylmethyl)piperazinyl ketone]: the IC50 was less than 100 nM.

As for `O=C(c1cc2cc(Cl)ccc2[nH]1)N1CCN(S(=O)(=O)CCc2ccccc2)CC1` [Compound C88, 5-chloroindol-2-yl 4-[(2-phenylethyl)sulfonyl]piperazinyl ketone], the IC50 was less than 100 nM.

`O=C(c1ccc(Cl)cc1)N1CCN(C(=O)c2cc3cc(Cl)ccc3[nH]2)CC1` [Compound C89, 5-chloroindol-2-yl 4-[(4-chlorophenyl)carbonyl]piperazinyl ketone]: the IC50 was less than 100 nM.

For the molecule `O=C(C#Cc1cccc(Cl)c1Cl)N1CCN(C(=O)c2ccc(F)cc2C(F)(F)F)CC1` [Compound C90, 3-(2,3-dichlorophenyl)-1-(4-{[4-fluoro-2-(trifluoromethyl)phenyl]carbonyl}piperazinyl)prop-2-yn-1-one], the half-maximal inhibitory concentration (IC50) is less than 100 nM.

With `O=C(/C=C/c1ccc(Br)cc1)N1CCN(Cc2ccc(Cl)cc2C(F)(F)F)CC1` [Compound C91, (2E)-3-(4-bromophenyl)-1-(4-{[4-chloro-2-(trifluoromethyl)phenyl]methyl}piperazinyl)prop-2-en-1-one], the half-maximal inhibitory concentration (IC50) was less than 100 nM.

Turning to `O=C(C#Cc1cccc(Cl)c1)N1CCN(C(c2ccccc2)c2ccccc2)CC1` [Compound C92, 1-[4-(diphenylmethyl)piperazinyl]-3-(3-chlorophenyl)prop-2-yn-1-one], the IC50 was less than 100 nM.

In the case of `O=C(/C=C/c1ccc(F)cc1)N1CCN(S(=O)(=O)/C=C/c2ccccc2)CC1` [Compound C95], the IC50 is less than 100 nM.

As for `O=C(/C=C/c1ccc(F)cc1)N1CCN(S(=O)(=O)c2ccc(Cl)cc2)CC1` [Compound C96, (2E)-1-{4-[(4-chlorophenyl)sulfonyl]piperazinyl}-3-(4-fluorophenyl)prop-2-en-1-one], the concentration for half-maximal inhibition (IC50) is less than 100 nM.

Take `COc1ccc2[nH]c(C(=O)N3CCN(C(c4ccccc4)c4ccccc4)CC3)cc2c1` [Compound C97, 4-(diphenylmethyl)piperazinyl 5-methoxyindol-2-yl ketone]: the concentration for half-maximal inhibition (IC50) is less than 100 nM.

Take `CCCCC(=O)N1CCN(C(=O)/C=C/c2ccc(Br)cc2)CC1` [Compound C98, (2E)-3-(4-bromophenyl)-1-(4-pentanoylpiperazinyl)prop-2-en-1-one]: the IC50 was less than 100 nM.

Regarding `O=C(/C=C/c1ccccc1)N1CCN(C(=O)/C=C/c2ccccc2)CC1` [Compound C99, (2E)-1-[4-((2E)-3-phenylprop-2-enoyl)piperazinyl]-3-phenylprop-2-en-1-one], the concentration for half-maximal inhibition (IC50) is less than 100 nM.

In the case of `O=C(/C=C/c1ccc(F)cc1)N1CCN(S(=O)(=O)c2ccccc2Br)CC1` [Compound C100, (2E)-1-{4-[(2-bromophenyl)sulfonyl]piperazinyl}-3-(4-fluorophenyl)prop-2-en-1-one], the 50% inhibitory concentration (IC50) is less than 100 nM.

On to `N#Cc1ccc(C(=O)N2CCN(C(=O)c3cc4cc(C(F)(F)F)ccc4[nH]3)CC2)cc1` [Compound C102, 4-[(4-{[5-(trifluoromethyl)indol-2-yl]carbonyl}piperazinyl)carbonyl]benzenecarbonitrile], for which the IC50 is less than 100 nM.

Consider `CC(C)c1ccc(CN2CCN(C(=O)/C=C/c3ccc(Br)cc3)CC2)cc1` [Compound C103, (2E)-3-(4-bromophenyl)-1-(4-{[4-(methylethyl)phenyl]methyl}piperazinyl)prop-2-en-1-one], for which the 50% inhibitory concentration (IC50) is less than 100 nM.

Turning to `O=C(c1cc2ccc(Cl)cc2[nH]1)N1CCN(C(c2ccccc2)c2ccccc2)CC1` [Compound C104, 4-(diphenylmethyl)piperazinyl 6-chloroindol-2-yl ketone], the half-maximal inhibitory concentration (IC50) is less than 100 nM.

On to `Cc1ccc2c(c1)cc(C(=O)N1CCN(C(c3ccccc3)c3ccccc3)CC1)n2C` [Compound C105, 1,5-dimethylindol-2-yl 4-(diphenylmethyl)piperazinyl ketone], for which the IC50 is less than 100 nM.

Regarding `O=C(/C=C/c1ccc(F)c(F)c1)N1CCN(C(c2ccccc2)c2ccccc2)CC1` [Compound C106, (2E)-3-(3,4-difluorophenyl)-1-[4-(diphenylmethyl)piperazinyl]prop-2-en-1-one], the concentration for half-maximal inhibition (IC50) was less than 100 nM.

In the case of `Cc1cc(C)cc(CN2CCN(C(=O)/C=C/c3ccc(Br)cc3)CC2)c1` [Compound C109, (2E)-1-{4-[(3,5-dimethylphenyl)methyl]piperazinyl}-3-(4-bromophenyl)prop-2-en-1-one], the IC50 was less than 100 nM.

For the molecule `O=C(c1ccc2ncccc2c1)N1CCN(C(c2ccccc2)c2ccccc2)CC1` [Compound C110, 4-(diphenylmethyl)piperazinyl 6-quinolyl ketone], the IC50 is less than 100 nM.

Consider `Cc1ccc2[nH]c(C(=O)N3CCN(Cc4ccc5c(c4)OCO5)CC3)cc2c1` [Compound C111, 4-(2H-benzo[d]1,3-dioxolan-5-ylmethyl)piperazinyl 5-methylindol-2-yl ketone], for which the IC50 was less than 100 nM.

A word on the IC50: it is the concentration that inhibits the measured activity by half.

The values are drawn from patent US9776979B2, “EBI2 modulators” (Sanford-Burnham Medical Research Institute, priority 2013, dated 2017).
